In one data set the test system is NZB/W F1 mice. The conditions noted are these: NZB/W model, profilactic and therapeutic; cited from earlier work.
Data set [1] relates to p190 transduced leukemic cells. The following applies: about 70 mg/kg twice daily; cited from earlier work.
The next data set relates to lupus symptoms. The conditions noted are these: B6.Sle1z.Sle3z model; cited from earlier work.
The conditions of data set [2]: PBS pH 7.4, 37° C., 24 hours, 5 μM; cited from earlier work.
The conditions of data set [3]: reference compound, 5 μM; cited from earlier work.
A further data set has as its target T1, PI3K α (Homo sapiens, UniProt P42336).
T1 construct: purchased Millipore
The experiment in a line: PI3-Kinase Promega ADP-Glo Max assay. Type of data set: biochemical. The following applies: 20 nM kinase, 3 mM ATP, 500 uM diC8-PtdInsP. An outline of the steps:
(§1)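 Human class I PI3K (20 nM α or δ, 40 nM β) pre-incubated 15 min with compound in HEPES pH 7.4 buffer with MgCl2, then reacted 2 h at room temperature with 3 mM ATP and 500 uM diC8-PtdInsP. ADP measured by ADP-Glo Max luminescence; % inhibition fitted to 4-parameter logistic for IC50.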

In the next data set the target is T2, PI3K β (Homo sapiens, UniProt P42338).
T2 construct: purchased Millipore
The experiment in a line: PI3-Kinase Promega ADP-Glo Max assay. Type of data set: biochemical. The conditions noted are these: 40 nM kinase, 3 mM ATP, 500 uM diC8-PtdInsP. An outline of the steps:
as §1

Another data set addresses T3, PI3K δ (Homo sapiens, UniProt O00329).
T3 construct: purchased Millipore
The experiment in a line: PI3-Kinase Promega ADP-Glo Max assay. Type of data set: biochemical. The conditions noted are these: 20 nM kinase, 3 mM ATP, 500 uM diC8-PtdInsP. In short, it runs like this: as §1

The next data set deals with T4, PI3K γ (Homo sapiens, UniProt P48736).
T4 construct: purchased Millipore
The experiment in a line: PI3-Kinase Promega ADP-Glo Max assay. Type of data set: biochemical. The following applies: 40 nM kinase, 3 mM ATP, 500 uM diC8-PtdInsP. In short, it runs like this:
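Human class I PI3K reactions ran 2 hours at room temperature, followed by stop solution (40 min) and detection mix (1 hour) before luminescence reading.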

The target of a further data set is T5, Raw264.7 p110 γ (Mus musculus, UniProt Q9JHG7).
T5 construct: reduction of phospho-AKT in stimulated RAW 264.7 cells; endogenous in cells; host or cells: RAW264.7 macrophages
The experiment in a line: Raw264.7 p110 γ cellular assay (phospho-AKT). Type of data set: cell-based. The following applies: serum-starved RAW264.7 cells stimulated with C5a. The source says:
(b) PI3K-γ Selective Assay
Briefly, serum-starved PAW264.7 cells are stimulated with a known GPCR agonist C5a. […] Cells can be treated with test compounds prior to, simultaneously with, or subsequent to the stimulation by C5a. RAW 264.7 cells respond to the complement component fragment C5a through activation of the C5a receptor, and the C5a receptor activates macrophages and induces cell migration.

For the next data set, the target named is RAJI p110 δ (Homo sapiens, UniProt O00329). The experiment in a line: RAJI p110 δ cellular assay (phospho-AKT).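 Also: potency based on lowered phosphorylated AKT in RAJI cells, as a readout of PI3K-δ dependent B-cell receptor signaling.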

Some results are limits rather than exact numbers.

T4 sequence (P48736 whole entry): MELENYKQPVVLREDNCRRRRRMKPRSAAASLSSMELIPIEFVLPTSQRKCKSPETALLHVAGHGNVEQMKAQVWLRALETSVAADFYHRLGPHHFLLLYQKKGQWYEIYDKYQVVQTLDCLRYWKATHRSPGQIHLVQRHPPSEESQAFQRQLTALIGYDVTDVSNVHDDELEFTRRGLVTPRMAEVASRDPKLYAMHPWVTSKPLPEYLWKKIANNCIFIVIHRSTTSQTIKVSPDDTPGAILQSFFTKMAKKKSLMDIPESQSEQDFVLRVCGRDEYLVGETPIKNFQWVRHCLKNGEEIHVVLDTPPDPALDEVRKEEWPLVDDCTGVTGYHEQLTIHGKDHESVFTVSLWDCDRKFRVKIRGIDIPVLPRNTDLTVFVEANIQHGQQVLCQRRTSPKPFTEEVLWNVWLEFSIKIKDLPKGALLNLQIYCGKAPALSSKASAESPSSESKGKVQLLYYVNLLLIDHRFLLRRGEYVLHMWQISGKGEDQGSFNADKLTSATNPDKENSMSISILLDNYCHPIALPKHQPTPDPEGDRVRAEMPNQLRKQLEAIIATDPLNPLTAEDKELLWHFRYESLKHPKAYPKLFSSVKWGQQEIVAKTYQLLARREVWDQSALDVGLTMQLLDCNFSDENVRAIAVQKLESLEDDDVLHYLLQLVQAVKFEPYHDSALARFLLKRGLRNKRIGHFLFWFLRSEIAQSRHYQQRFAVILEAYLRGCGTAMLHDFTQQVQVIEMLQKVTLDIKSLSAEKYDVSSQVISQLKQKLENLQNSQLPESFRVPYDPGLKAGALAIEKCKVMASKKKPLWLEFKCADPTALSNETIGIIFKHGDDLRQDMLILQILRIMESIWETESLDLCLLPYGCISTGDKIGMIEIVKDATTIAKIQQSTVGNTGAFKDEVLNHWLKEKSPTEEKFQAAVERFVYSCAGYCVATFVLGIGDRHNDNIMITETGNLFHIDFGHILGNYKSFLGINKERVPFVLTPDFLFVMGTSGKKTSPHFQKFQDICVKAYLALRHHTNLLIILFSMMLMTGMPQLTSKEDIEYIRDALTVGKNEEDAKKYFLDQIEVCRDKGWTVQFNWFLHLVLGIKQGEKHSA
RAJI p110 δ, sequence (O00329 whole entry): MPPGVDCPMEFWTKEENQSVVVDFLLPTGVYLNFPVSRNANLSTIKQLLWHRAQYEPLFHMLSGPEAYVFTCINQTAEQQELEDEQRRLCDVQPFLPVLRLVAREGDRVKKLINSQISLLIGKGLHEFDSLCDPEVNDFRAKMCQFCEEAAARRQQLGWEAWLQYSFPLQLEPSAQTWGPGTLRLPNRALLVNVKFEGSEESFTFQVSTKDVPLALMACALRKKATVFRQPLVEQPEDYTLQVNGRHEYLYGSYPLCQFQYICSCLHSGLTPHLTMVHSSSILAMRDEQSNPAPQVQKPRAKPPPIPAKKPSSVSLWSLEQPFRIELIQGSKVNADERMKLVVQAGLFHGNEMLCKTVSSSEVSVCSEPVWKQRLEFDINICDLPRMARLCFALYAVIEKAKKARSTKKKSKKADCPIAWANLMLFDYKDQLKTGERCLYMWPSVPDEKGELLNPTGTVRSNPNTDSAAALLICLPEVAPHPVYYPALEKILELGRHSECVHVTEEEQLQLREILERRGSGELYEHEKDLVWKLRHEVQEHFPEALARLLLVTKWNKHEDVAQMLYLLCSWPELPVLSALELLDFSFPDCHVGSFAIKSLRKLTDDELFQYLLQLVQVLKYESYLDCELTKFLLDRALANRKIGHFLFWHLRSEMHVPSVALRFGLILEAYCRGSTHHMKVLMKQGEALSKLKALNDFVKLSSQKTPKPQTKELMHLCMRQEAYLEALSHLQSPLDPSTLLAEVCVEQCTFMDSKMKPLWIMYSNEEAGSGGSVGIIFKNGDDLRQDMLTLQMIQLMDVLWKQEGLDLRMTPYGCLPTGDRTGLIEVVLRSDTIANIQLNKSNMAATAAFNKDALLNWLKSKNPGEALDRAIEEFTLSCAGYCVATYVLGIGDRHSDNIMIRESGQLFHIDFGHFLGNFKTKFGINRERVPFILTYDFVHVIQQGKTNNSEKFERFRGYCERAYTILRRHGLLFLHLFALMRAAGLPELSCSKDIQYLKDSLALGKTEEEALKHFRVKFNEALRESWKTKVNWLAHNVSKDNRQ
RAJI p110 δ, sequence (P27986 whole entry partner): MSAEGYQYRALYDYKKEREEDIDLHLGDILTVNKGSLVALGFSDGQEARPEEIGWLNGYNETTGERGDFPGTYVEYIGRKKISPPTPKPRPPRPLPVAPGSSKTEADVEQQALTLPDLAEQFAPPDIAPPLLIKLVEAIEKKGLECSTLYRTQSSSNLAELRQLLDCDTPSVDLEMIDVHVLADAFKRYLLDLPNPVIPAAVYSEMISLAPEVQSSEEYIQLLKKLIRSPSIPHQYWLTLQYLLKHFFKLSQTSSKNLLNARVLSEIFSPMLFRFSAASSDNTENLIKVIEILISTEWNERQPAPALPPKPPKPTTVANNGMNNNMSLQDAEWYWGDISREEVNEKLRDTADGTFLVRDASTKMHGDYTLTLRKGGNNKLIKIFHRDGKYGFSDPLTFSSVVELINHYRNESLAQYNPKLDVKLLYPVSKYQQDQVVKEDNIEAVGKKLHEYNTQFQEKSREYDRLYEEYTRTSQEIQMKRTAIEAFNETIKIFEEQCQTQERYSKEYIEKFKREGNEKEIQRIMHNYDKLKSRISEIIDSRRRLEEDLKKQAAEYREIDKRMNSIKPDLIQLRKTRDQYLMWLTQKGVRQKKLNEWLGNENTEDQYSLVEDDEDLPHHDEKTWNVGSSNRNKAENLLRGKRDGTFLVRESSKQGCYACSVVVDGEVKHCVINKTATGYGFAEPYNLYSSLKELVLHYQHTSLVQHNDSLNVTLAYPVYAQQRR
T3 sequence (O00329 whole entry): as the sequence (O00329 whole entry) above
T3 sequence (P27986 whole entry partner): as the sequence (P27986 whole entry partner) above
T5 sequence (Q9JHG7 whole entry): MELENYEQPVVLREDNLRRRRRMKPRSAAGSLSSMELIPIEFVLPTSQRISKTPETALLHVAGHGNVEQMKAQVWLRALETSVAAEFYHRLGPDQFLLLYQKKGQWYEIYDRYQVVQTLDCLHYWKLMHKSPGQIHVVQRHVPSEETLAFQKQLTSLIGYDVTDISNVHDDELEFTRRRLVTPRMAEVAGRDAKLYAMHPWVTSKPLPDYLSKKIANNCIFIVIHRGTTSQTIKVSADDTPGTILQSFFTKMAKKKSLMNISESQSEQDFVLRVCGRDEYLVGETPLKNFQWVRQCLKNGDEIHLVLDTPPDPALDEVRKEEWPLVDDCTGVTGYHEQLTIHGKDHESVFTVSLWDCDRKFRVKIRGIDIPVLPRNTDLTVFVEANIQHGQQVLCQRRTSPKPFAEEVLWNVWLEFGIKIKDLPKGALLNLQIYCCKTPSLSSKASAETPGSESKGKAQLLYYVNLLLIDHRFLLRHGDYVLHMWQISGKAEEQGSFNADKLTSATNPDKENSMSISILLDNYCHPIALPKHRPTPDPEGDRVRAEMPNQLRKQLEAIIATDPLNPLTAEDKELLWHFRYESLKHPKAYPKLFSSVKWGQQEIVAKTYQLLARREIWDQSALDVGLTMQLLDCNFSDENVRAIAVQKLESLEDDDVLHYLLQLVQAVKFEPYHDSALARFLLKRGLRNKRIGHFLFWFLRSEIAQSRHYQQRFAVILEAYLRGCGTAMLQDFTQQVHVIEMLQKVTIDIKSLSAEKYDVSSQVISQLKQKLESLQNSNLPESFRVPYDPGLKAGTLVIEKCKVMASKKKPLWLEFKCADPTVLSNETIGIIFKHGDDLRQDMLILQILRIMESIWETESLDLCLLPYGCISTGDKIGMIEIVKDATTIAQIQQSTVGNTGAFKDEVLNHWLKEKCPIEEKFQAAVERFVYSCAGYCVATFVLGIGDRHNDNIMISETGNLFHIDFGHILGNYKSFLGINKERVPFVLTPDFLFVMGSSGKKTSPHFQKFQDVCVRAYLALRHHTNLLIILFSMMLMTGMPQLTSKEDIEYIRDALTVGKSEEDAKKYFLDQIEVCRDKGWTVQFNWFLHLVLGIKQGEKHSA
Text for RAJI p110 δ: (a) PI3K-δ Selective Assay
Reduction of phospho-AKT is indicative of compounds that may inhibit B-cell proliferation and function in certain diseases.

For the molecule `CC(C)C[C@H](NC(=O)[C@H](Cc1ccccc1)NC(=O)c1cnccn1)B(O)O` [Bortezimib], the blocking disease entry in the data set on NZB/W F1 mice is recorded as “effective at blocking disease”.

As to `Cc1ccc(NC(=O)c2ccc(CN3CCN(C)CC3)cc2)cc1Nc1nccc(-c2cccnc2)n1` [imatinib], in data set [1], the leukemogenesis entry is “delay but not cure leukemogenesis”.

In the case of `CO[C@H]1C[C@@H]2CC[C@@H](C)[C@@](O)(O2)C(=O)C(=O)N2CCCC[C@H]2C(=O)O[C@H]([C@H](C)C[C@@H]2CC[C@@H](OCCO)[C@H](OC)C2)CC(=O)[C@H](C)/C=C(\C)[C@@H](O)[C@@H](OC)C(=O)[C@H](C)C[C@H](C)/C=C/C=C/C=C/1C` [RAD001, everolimus], the lupus symptoms entry with lupus symptoms was “ameliorate lupus symptoms”.

Regarding `O=C(O)CCCc1ccc(N(CCCl)CCCl)cc1` [chlorambucil], in data set [2], the chemical stability entry is reported as “largely hydrolyzed over the course of 24 hours”.

As for `CC(C)[N+](C)(CCOC(=O)C1c2ccccc2Oc2ccccc21)C(C)C` [propantheline], in data set [3], the plasma stability entry is listed as “intermediate plasma stability”.

Turning to `CCCOc1cc(N)ccc1C(=O)OCCN(CC)CC` [propoxycaine], the plasma stability entry in data set [3] was “low plasma stability”.

Consider `C[C@H](NC(=O)c1nc(-c2ccccc2)cnc1N)c1cc2cccc(Cl)c2c(=O)n1-c1ccccc1` [Compound 42], for which the IC50 was greater than 10 µM at PI3K α; greater than 10 µM against PI3K β; greater than 10 µM against PI3K δ; 1 to 10 µM against PI3K γ; 1 to 10 µM against Raw264.7 p110 γ; 0.1 to 1 µM on RAJI p110 δ.

In the case of `C[C@H](NC(=O)c1c(N)nn2cccnc12)c1cc2cccc(C#CCNC(=O)[C@@H]3CCC(=O)O3)c2c(=O)n1-c1ccccc1` [Compound 157], the half-maximal inhibitory concentration (IC50) against PI3K α was 0.1 to 1 µM; on PI3K β, 0.1 to 1 µM; against PI3K δ it was 0.1 to 1 µM; against PI3K γ it was less than 0.1 µM; at Raw264.7 p110 γ, less than 0.1 µM; at RAJI p110 δ, less than 0.1 µM.

Turning to `C[C@H](NC(=O)c1nc(-c2cccc(NS(C)(=O)=O)c2)cnc1N)c1cc2cccc(Cl)c2c(=O)n1C1CC1` [Compound 171], the IC50 at PI3K α is 1 to 10 µM; at PI3K β it was 0.1 to 1 µM; at PI3K δ it was 1 to 10 µM; on PI3K γ, less than 0.1 µM; on Raw264.7 p110 γ it was less than 0.1 µM; at RAJI p110 δ, less than 0.1 µM.

For `C[C@H](NC(=O)c1cnc2cccnn12)c1cc2cccc(Cl)c2c(=O)n1-c1ccc(F)cc1` [Compound 20], the IC50 against PI3K α was 1 to 10 µM; on PI3K β, 1 to 10 µM; against PI3K δ it was 1 to 10 µM; at PI3K γ, 1 to 10 µM; against Raw264.7 p110 γ, 0.1 to 1 µM; on RAJI p110 δ, less than 0.1 µM.

Turning to `C[C@H](NC(=O)c1c(N)nn2cccnc12)c1cc2cccc(C(F)(F)F)c2c(=O)n1-c1ccccc1` [Compound 71], the IC50 on PI3K α is greater than 10 µM; at PI3K β, 1 to 10 µM; on PI3K δ it was 1 to 10 µM; at PI3K γ, 0.1 to 1 µM; against Raw264.7 p110 γ it was less than 0.1 µM; at RAJI p110 δ, less than 0.1 µM.

For the molecule `COc1ncc(-c2cccc3cc([C@H](C)NC(=O)c4c(N)nn5cccnc45)n(-c4ccccc4)c(=O)c23)cn1` [Compound 128], the IC50 against PI3K α is 1 to 10 µM; against PI3K β it was 1 to 10 µM; on PI3K δ it was 1 to 10 µM; against PI3K γ it was 0.1 to 1 µM; at Raw264.7 p110 γ, less than 0.1 µM; against RAJI p110 δ, less than 0.1 µM.

`C[C@H](NC(=O)c1nc(-c2cccc(S(=O)(=O)NC3CC3)c2)cnc1N)c1cc2cccc(Cl)c2c(=O)n1-c1ccccc1` [Compound 96]: the IC50 against PI3K α was greater than 10 µM; against PI3K β, 1 to 10 µM; at PI3K δ, 1 to 10 µM; against PI3K γ it was 1 to 10 µM; at Raw264.7 p110 γ, less than 0.1 µM; at RAJI p110 δ, less than 0.1 µM.

As to `C[C@H](NC(=O)c1c(N)nn2cccnc12)c1cc2cccc(-c3cncs3)c2c(=O)n1-c1ccccc1` [Compound 245], the IC50 is 1 to 10 µM at PI3K α; greater than 10 µM at PI3K β; 1 to 10 µM against PI3K δ; 0.1 to 1 µM against PI3K γ; less than 0.1 µM at Raw264.7 p110 γ; less than 0.1 µM against RAJI p110 δ.

Turning to `CC(C)Oc1ccc(-c2cnc(N)c(C(=O)N[C@@H](C)c3cc4cccc(Cl)c4c(=O)n3-c3ccccc3)n2)cn1` [Compound 98], the half-inhibitory concentration (IC50) is greater than 10 µM against PI3K α; greater than 10 µM against PI3K β; 1 to 10 µM on PI3K δ; 1 to 10 µM against PI3K γ; 0.1 to 1 µM at Raw264.7 p110 γ; 0.1 to 1 µM against RAJI p110 δ.

As for `C[C@H](NC(=O)c1c(N)nn2cccnc12)c1cc2cccc(Cl)c2c(=O)n1CCN(C)S(C)(=O)=O` [Compound 273], the 50% inhibitory concentration (IC50) against PI3K α is 0.1 to 1 µM; at PI3K β, 0.1 to 1 µM; against PI3K δ, 0.1 to 1 µM; on PI3K γ, less than 0.1 µM; against Raw264.7 p110 γ, less than 0.1 µM; against RAJI p110 δ, less than 0.1 µM.

Turning to `C[C@H](NC(=O)c1c(N)nn2cccnc12)c1cc2cccc(N3CCOCC3)c2c(=O)n1-c1ccccc1` [Compound 184], the IC50 on PI3K α is greater than 10 µM; at PI3K β it was greater than 10 µM; against PI3K δ it was greater than 10 µM; on PI3K γ, 1 to 10 µM; on Raw264.7 p110 γ, 0.1 to 1 µM; against RAJI p110 δ, 1 to 10 µM.

Source of the values: US8940742B2, “Heterocyclic compounds and uses thereof” (Infinity Pharmaceuticals, Inc., priority 2012, dated 2015).
